Test results published in patent US20240360151A1 (SANOFI, priority 2023, published 2024).

How the values were obtained:
NLRP3 inflammasome = target: T1, NLRP3 inflammasome (Homo sapiens, UniProt Q96P20); assay: IL-1β secretion assay (NLRP3 IC50) in LPS-primed, nigericin-activated THP-1 cells, HTRF; type: cell-based; details: monocytic THP-1 cells; LPS 10 ng/mL 3 h priming, then compound + nigericin 10 μM 2 h; relative IC50, 10 concentrations, geometric mean
T1 construct: endogenous in cells; host or cells: THP-1 monocytic cells
T1 sequence (Q96P20 whole entry): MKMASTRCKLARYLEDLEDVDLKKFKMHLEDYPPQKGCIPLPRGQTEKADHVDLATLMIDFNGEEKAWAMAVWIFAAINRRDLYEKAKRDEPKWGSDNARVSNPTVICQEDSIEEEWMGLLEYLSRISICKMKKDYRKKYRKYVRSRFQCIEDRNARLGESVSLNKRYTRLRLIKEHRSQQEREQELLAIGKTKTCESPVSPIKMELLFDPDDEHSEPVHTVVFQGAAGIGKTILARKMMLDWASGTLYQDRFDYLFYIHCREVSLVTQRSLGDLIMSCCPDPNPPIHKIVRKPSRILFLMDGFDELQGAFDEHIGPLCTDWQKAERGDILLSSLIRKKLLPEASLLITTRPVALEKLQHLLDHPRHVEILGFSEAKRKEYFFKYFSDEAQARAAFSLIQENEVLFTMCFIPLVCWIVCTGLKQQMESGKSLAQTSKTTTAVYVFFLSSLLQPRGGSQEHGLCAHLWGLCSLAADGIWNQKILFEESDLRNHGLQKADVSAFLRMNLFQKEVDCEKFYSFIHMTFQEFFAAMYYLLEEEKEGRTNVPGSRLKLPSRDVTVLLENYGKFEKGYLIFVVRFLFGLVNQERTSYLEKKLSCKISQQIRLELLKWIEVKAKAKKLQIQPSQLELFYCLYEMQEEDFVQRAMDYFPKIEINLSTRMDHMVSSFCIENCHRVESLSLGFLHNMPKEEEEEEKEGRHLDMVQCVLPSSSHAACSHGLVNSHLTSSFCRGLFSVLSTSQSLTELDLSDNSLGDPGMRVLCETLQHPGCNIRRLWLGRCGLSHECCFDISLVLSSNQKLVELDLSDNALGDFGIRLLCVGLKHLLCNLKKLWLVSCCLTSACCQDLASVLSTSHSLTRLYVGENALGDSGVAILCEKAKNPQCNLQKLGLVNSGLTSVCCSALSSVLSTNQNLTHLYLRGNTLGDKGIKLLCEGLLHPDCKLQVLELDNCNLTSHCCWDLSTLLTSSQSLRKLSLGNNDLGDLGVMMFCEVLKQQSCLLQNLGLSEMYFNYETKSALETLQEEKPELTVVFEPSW
Method in brief: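 THP-1 cells primed with LPS 10 ng/mL for 3 h at 37° C., then compound (10-point 1:3 dilution, 0.1% DMSO) added with 10 μM nigericin for 2 h. Supernatant IL-1β measured by HTRF; relative IC50 from a 4-parameter logistic fit, reported as geometric mean.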

[1] = system: NF-kB pathway (TNF-α secretion by THP-1 cells); assay: TNF-α secretion assay in LPS-stimulated THP-1 cells, Lumit immunoassay; type: cell-based, human; details: Homo sapiens, THP-1, 3 h, monocytic THP-1 cells, LPS 10 ng/mL, relative IC50, 10 concentrations, geometric mean
Procedure: Monocytic THP-1 cells were maintained in RPMI 1640 media (Gibco 21875)+10% FBS, (Gibco 10500)+1% penicillin/streptomycin (Gibco 15140-122). Cells were then plated at 40,000 cells per well in 384-well cell culture plates (Corning 3542) and maintained with RPMI1640 (Gibco 11835)+5% FBS, (Gibco 10500). Experimental compounds were prepared and added as described above. TNF-α secretion was triggered by the addition of 10 ng/mL LPS (invivoGen, tlrl-3pelps) and cells were incubated for 3 hours. TNF-α levels were monitored directly in the cells plate using an Lumit assay (Lumit TNFa-Human Immunoassay—Promega W6051) according to manufacturers' instructions.
Data were expressed as percentage of inhibition (I %) as compared to a maximum signal control containing no small molecule (I %=0%) according to the formula: 1%=(1−((Sample−Min))/((Max−Min)))×100, where: • Sample: Signal obtained in the presence of each compound tested, • Max: Maximum signal in the absence of compound added, • Min: Minimum or background signal obtained in the absence of activation signal.
Relative IC50 (IC50 rel) were obtained from a dose response curve with 10 concentrations. Final IC50 rels are expressed as the geometric mean.
Relative IC50 values were estimated with Biost@t-SPEED v2.4 internal software based on SAS system using the 4-parameter logistic model according to Ratkovsky and Reedy (D. A. Ratkovsky, T. J. Reedy, Choosing near-linear parameters in the four parameters logistic model radioligands and related assays. Biometrics, 42 (1986), 575-582): Y=A+C/((1+exp(−B*(log(X)−M)))), where: • A: Lower asymptote (BOTTOM), • A+C: Upper asymptote (TOP), • M: the logarithm of the concentration estimated at the inflexion point (the logarithm of the relative IC50), • B: Slope at the inflexion point of the curve.

| IC50 (NLRP3 inflammasome) | IC50 [1] | Structure (SMILES) |
| --- | --- | --- |
| 386 nM | > 10000 nM | Cc1cc(C(F)(F)F)cc(O)c1-c1ccc(N2CCOC(CN(C)C)C2)nn1 (single isomer, unassigned) [Example 60, 2-[6-[-2-[(dimethylamino)methyl]morpholin-4-yl]pyridazin-3-yl]-3-methyl-5-(trifluoromethyl)phenol] |
| 1 nM | > 10000 nM | Cc1cc(C(F)(F)F)cc(O)c1-c1ccc(N2CC[C@@H]3CCN(C)C[C@@H]32)nn1 [Example 392, 2-[6-[(3aS,7aR)-6-methyl-3,3a,4,5,7,7a-hexahydro-2H-pyrrolo[2,3-c]pyridin-1-yl]pyridazin-3-yl]-3-methyl-5-(trifluoromethyl)phenol] |
| 210 nM | > 10000 nM | Cc1cc(C)c(-c2ccc(N3CC[C@@H](CO)C3=O)nn2)c(O)c1 (single isomer, unassigned) [Example 140] |
| 362 nM | > 10000 nM | Cc1cc(C(F)(F)F)cc(O)c1-c1ccc(N2C[C@H](O)CC2=O)nn1 [Example 132, (4R)-4-hydroxy-1-[6-[2-hydroxy-6-methyl-4-(trifluoromethyl)phenyl]pyridazin-3-yl]pyrrolidin-2-one] |
| 78 nM | > 10000 nM | CCN1CC[C@H]2CCN(c3ccc(-c4c(C)cc(C(F)(F)F)cc4O)nn3)[C@H]2C1 (stereo in doubt) [Example 406, 2-[6-[(3aS,7aR)-6-ethyl-3,3a,4,5,7,7a-hexahydro-2H-pyrrolo[2,3-c]pyridin-1-yl]pyridazin-3-yl]-3-methyl-5-(trifluoromethyl)phenol] |
| 456 nM | > 10000 nM | Cc1cc(C(F)(F)F)cc(O)c1-c1ccc(N2CCCC(CO)C2=O)nn1 (stereo not shown) [Example 273, 3-(hydroxymethyl)-1-[6-[2-hydroxy-6-methyl-4-(trifluoromethyl)phenyl]pyridazin-3-yl]piperidin-2-one] |
| 306 nM | > 10000 nM | Cc1cc(C)c(-c2ccc(N3CCC[C@H](O)C3)nn2)c(O)c1 [Example 67, (3S)-1-[6-(2-hydroxy-4,6-dimethyl-phenyl)pyridazin-3-yl]piperidin-3-ol] |
| 1 nM | > 10000 nM | CCN1CC[C@H]2OCCN(c3ccc(-c4c(C)cc(C(F)(F)F)cc4O)nn3)[C@H]2C1 (single isomer, unassigned) [Example 256] |
| 249 nM | > 10000 nM | Cc1cc(C(F)(F)F)cc(O)c1-c1ccc(N2C[C@@H](N)CC2=O)nn1 [Example 250, (4S)-4-amino-1-[6-[2-hydroxy-6-methyl-4-(trifluoromethyl)phenyl]pyridazin-3-yl]pyrrolidin-2-one] |
| 8 nM | > 10000 nM | CCN1C[C@@H]2OCCN(c3ccc(-c4c(C)cc(C(F)(F)F)cc4O)nn3)[C@@H]2C1 (racemic) [Example 361, 3-methyl-2-[6-[rac-(4aR,7aS)-6-ethyl-2,3,4a,5,7,7a-hexahydropyrrolo[3,4-b][1,4]oxazin-4-yl]pyridazin-3-yl]-5-(trifluoromethyl)phenol] |

The remaining lines, values behind:

| Structure (SMILES) | IC50 (NLRP3 inflammasome) | IC50 [1] |
| --- | --- | --- |
| NC[C@@H]1CCCN(c2ccc(-c3c(O)cc(Cl)cc3Cl)nn2)C1 [Example 18, 2-[6-[(3S)-3-(aminomethyl)-1-piperidyl]pyridazin-3-yl]-3,5-dichloro-phenol] | 173 nM | > 10000 nM |
| COc1ccc(-c2nnc(N3CCO[C@H](CO)C3)cc2C)c(O)c1 [Example 116, 2-[6-[(2S)-2-(hydroxymethyl)morpholin-4-yl]-4-methyl-pyridazin-3-yl]-5-methoxy-phenol] | 454 nM | > 10000 nM |
| CCC(=O)C1CN(c2ccc(-c3c(C)cc(C)cc3O)nn2)CCO1 (single isomer, unassigned) [Example 157] | 314 nM | > 10000 nM |
| OC[C@@H]1CCCN(c2ccc(-c3c(O)cc(Cl)cc3Cl)nn2)C1 [Example 36, 3,5-dichloro-2-[6-[(3R)-3-(hydroxymethyl)-1-piperidyl]pyridazin-3-yl]phenol] | 96 nM | > 10000 nM |
| CCN1CC[C@@H]2OCCN(c3ccc(-c4c(C)cc(Cl)cc4O)nn3)[C@@H]2C1 (racemic) [Example 223, 5-chloro-3-methyl-2-[6-[rac-(4aR,8aS)-6-ethyl-3,4a,5,7,8,8a-hexahydro-2H-pyrido[4,3-b][1,4]oxazin-4-yl]pyridazin-3-yl]phenol] | 1 nM | > 10000 nM |
| CCC(=O)C1CN(c2ccc(-c3c(C)cc(C)cc3O)nn2)CCO1 (stereo not shown) [Example 126, 1-[4-[6-(2-hydroxy-4,6-dimethylphenyl)pyridazin-3-yl]morpholin-2-yl]propan-1-one] | 484 nM | > 10000 nM |
| Cc1cc(C)c(-c2ccc(N3CCO[C@H]4CCNC[C@H]43)nn2)c(O)c1 [Example 314, 2-[6-[(4aR,8aS)-2,3,4a,5,6,7,8,8a-octahydropyrido[4,3-b][1,4]oxazin-4-yl]pyridazin-3-yl]-3,5-dimethyl-phenol] | 18 nM | > 10000 nM |
| OC[C@@H]1CN(c2cc(C(F)F)c(-c3ccc(C(F)(F)F)cc3O)nn2)CCO1 [Example 247, 2-[4-(difluoromethyl)-6-[(2S)-2-(hydroxymethyl)morpholin-4-yl]pyridazin-3-yl]-5-(trifluoromethyl)phenol] | 168 nM | > 10000 nM |
| CCc1cccc(O)c1-c1ccc(N2CCO[C@@H]3CCN(C(C)C)C[C@@H]32)nn1 [Example 432, 2-[6-[(4aS,8aR)-6-isopropyl-3,4a,5,7,8,8a-hexahydro-2H-pyrido[4,3-b][1,4]oxazin-4-yl]pyridazin-3-yl]-3-ethyl-phenol] | 5 nM | > 10000 nM |
| Cc1ccc(-c2nnc(N3CCO[C@@H]4CCN(C)C[C@@H]43)cc2C(F)F)c(O)c1 [Example 295, 2-[6-[(4aS,8aR)-6-methyl-3,4a,5,7,8,8a-hexahydro-2H-pyrido[4,3-b][1,4]oxazin-4-yl]-4-(difluoromethyl)pyridazin-3-yl]-5-methyl-phenol] | 2 nM | > 10000 nM |
| Cc1cc(C)c(-c2ccc(N3C[C@@H](CO)O[C@@H](CO)C3)nn2)c(O)c1 [Example 173, 2-[6-[(2R,6S)-2,6-bis(hydroxymethyl)morpholin-4-yl]pyridazin-3-yl]-3,5-dimethyl-phenol] | 40 nM | > 10000 nM |
| CC(=O)N1CC[C@H]2OCCN(c3nnc(-c4c(C)cc(C)cc4O)cc3C(F)F)[C@H]2C1 [Example 405, 1-[(4aS,8aR)-4-[4-(difluoromethyl)-6-(2-hydroxy-4,6-dimethyl-phenyl)pyridazin-3-yl]-3,4a,5,7,8,8a-hexahydro-2H-pyrido[4,3-b][1,4]oxazin-6-yl]ethanone] | 89 nM | > 10000 nM |
| Cc1cc(C)c(-c2ccc(N3CCOC[C@@H]3CO)nn2)c(O)c1 [Example 6, 2-[6-[(3S)-3-(hydroxymethyl)morpholin-4-yl]pyridazin-3-yl]-3,5-dimethyl-phenol] | 235 nM | > 10000 nM |
| Cc1cc(C(F)(F)F)cc(O)c1-c1nnc(N2C[C@@H](O)CC2=O)cc1C(F)F [Example 372, (4S)-1-[5-(difluoromethyl)-6-[2-hydroxy-6-methyl-4-(trifluoromethyl)phenyl]pyridazin-3-yl]-4-hydroxy-pyrrolidin-2-one] | 94 nM | > 10000 nM |
| Oc1cc(Cl)cc(Cl)c1-c1ccc(N2CC3(CC(O)C3)C2)nn1 [Example 46, 2-[6-(2,4-dichloro-6-hydroxy-phenyl)pyridazin-3-yl]-2-azaspiro[3.3]heptan-6-ol] | 389 nM | > 10000 nM |
| Cc1cc(C)c(-c2ccc(N3CCNC4(CCOC4)C3)nn2)c(O)c1 (stereo not shown) [Example 196, 3,5-dimethyl-2-[6-(2-oxa-6,9-diazaspiro[4.5]decan-9-yl)pyridazin-3-yl]phenol] | 452 nM | > 10000 nM |
| Cc1cc(C)c(-c2ccc(N3CC[C@@H]4CCN(C)C[C@@H]43)nn2)c(O)c1 (single isomer, unassigned) [Example 384] | 0.4 nM | > 10000 nM |
| CC(=O)N1CC[C@H]2OCCN(c3cc(C)c(-c4ccc(Cl)cc4O)nn3)[C@H]2C1 [Example 357, 1-[(4aS,8aR)-4-[6-(4-chloro-2-hydroxy-phenyl)-5-methyl-pyridazin-3-yl]-3,4a,5,7,8,8a-hexahydro-2H-pyrido[4,3-b][1,4]oxazin-6-yl]ethanone] | 48 nM | > 10000 nM |
| OC[C@@H]1CN(c2ccc(-c3c(O)cccc3Cl)nn2)CCO1 [Example 48, 3-chloro-2-[6-[(2S)-2-(hydroxymethyl)morpholin-4-yl]pyridazin-3-yl]phenol] | 386 nM | > 10000 nM |
